Measurements published in paper PMC8580996, “2-Oxoglutarate derivatives can selectively enhance or inhibit the activity of human oxygenases” (Nature Communications, 2021).
Where “and” joins values, the source holds several entries; their conditions need not be identical. Identical values can stand only once.

How the values were obtained:
[1] = target: T1, FIH (Homo sapiens, UniProt Q9NWT6); assay: SPE-MS FIH turnover (cosubstrate) assay in the absence of 2OG; format: biochemical; details: 330 μM 2OG or 2OG derivative, no 2OG, t = 15 min
T1 sequence (Q9NWT6 whole entry): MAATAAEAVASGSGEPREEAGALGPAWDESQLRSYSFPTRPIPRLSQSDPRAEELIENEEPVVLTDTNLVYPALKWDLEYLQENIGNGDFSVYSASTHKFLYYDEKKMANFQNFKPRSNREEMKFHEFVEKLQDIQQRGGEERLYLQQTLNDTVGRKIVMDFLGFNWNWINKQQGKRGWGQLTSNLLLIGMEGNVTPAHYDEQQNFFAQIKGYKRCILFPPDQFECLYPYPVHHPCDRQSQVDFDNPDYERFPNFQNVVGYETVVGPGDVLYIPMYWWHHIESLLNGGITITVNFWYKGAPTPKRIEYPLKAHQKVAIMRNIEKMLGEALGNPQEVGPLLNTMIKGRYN
How it was run: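 Purified recombinant FIH incubated with C3/C4-substituted 2OG derivatives in place of 2OG; substrate hydroxylation (+16 Da) read by SPE-MS on C4 cartridge. Value given as % conversion = 100 × product/(substrate + product) peak integrals.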

[2] = target: T2, AspH (Homo sapiens, UniProt Q12797); details: 0.05 μM AspH, 1.0 μM hFX-CP101-119, 3.0 μM 2OG, ref 21 (supplementary ref 1); cited from earlier work
T2 construct: the tetratricopeptide repeat domain (His6-AspH315-758), was produced and purified as previously reported; made in house
T2 sequence (Q12797 315-758): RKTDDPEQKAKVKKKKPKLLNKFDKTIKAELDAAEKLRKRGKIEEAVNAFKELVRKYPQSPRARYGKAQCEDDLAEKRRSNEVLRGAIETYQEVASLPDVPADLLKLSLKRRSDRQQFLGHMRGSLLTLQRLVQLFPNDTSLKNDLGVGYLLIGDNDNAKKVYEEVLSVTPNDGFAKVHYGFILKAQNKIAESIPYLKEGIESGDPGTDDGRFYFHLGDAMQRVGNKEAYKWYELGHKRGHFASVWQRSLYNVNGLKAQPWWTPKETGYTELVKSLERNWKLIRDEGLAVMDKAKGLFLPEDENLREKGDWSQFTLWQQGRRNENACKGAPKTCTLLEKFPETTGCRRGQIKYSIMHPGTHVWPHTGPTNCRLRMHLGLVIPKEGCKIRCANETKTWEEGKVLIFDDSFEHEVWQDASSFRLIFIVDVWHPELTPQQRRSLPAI

[3] = target: T1, FIH; assay: FIH steady-state kinetic parameters (SPE-MS, initial hydroxylation rates); format: biochemical; parameters: slope of initial reaction rate: unit not given here
How it was run: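 FIH-catalysed CA1-20 peptide hydroxylation with varied 2OG or 2OG derivative, 20 μM ammonium iron(II) sulfate plus L-ascorbic acid, in 50 mM Tris, 50 mM NaCl, pH 7.5, 20 °C, monitored by SPE-MS (~1 sample/40 s). Initial rates fitted to Michaelis–Menten for vapp and Kapp; independent triplicates.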

For O=C(O)C(=O)C1CCC(C(=O)O)C1 (stereo not shown) [compound 22, 3-(carboxycarbonyl)cyclopentane-1-carboxylic acid], the “FIH activity, %-substrate conversion” value ([1]; CA1–20 substrate) is given as about 5%, the “FIH activity, %-substrate conversion” value ([1]; HIF-1α788–822 substrate) is given as about 2% and the IC50 [2] is given as 5 µM. The “SPE-MS determined concentration of hydroxylated HIF-1a peptide” value (“SPE-MS determined concentration” below) ([3]; 4 uM compound 22, time 2.098 min) was 0.04779 µM and 0.05783 µM and 0.03772 µM, the “SPE-MS determined concentration” value ([3]; 4 uM compound 22, time 2.797 min) was 0.05438 µM and 0.0588 µM and 0.03391 µM and the “SPE-MS determined concentration” value ([3]; 4 uM compound 22 as cosubstrate, time 3.49667 min, replicates 1-3) was 0.05919 µM and 0.07205 µM and 0.04053 µM. For the same compound, the “SPE-MS determined concentration” value ([3]; 8 uM compound 22, time 0.699833 min) was 0.02809 µM and 0.04706 µM and 0.04281 µM, the “SPE-MS determined concentration” value ([3]; 8 uM compound 22, time 2.098 min) was 0.0572 µM and 0.06337 µM and 0.07945 µM and the “SPE-MS determined concentration” value ([3]; 8 uM compound 22, time 2.797 min) was 0.05834 µM and 0.07508 µM and 0.08857 µM. The “SPE-MS determined concentration” value ([3]; 8 uM compound 22 as cosubstrate, time 3.49667 min, replicates 1-3) was 0.08563 µM and 0.07413 µM and 0.09575 µM, the “SPE-MS determined concentration” value ([3]; 8 uM compound 22 as cosubstrate, time 4.19733 min, replicates 1-3) was 0.0782 µM and the “SPE-MS determined concentration” value ([3]; 16 uM compound 22, time 0.699833 min) was 0.06076 µM and 0.05382 µM and 0.0426 µM. The “SPE-MS determined concentration” value ([3]; 16 uM compound 22, time 2.098 min) was 0.08485 µM and 0.09545 µM and 0.07537 µM, the “SPE-MS determined concentration” value ([3]; 16 uM compound 22, time 2.797 min) was 0.09668 µM and 0.1092 µM and 0.09109 µM and the “SPE-MS determined concentration” value ([3]; 16 uM compound 22 as cosubstrate, time 3.49667 min, replicates 1-3) was 0.105 µM and 0.1268 µM and 0.09176 µM. The “SPE-MS determined concentration” value ([3]; 32 uM compound 22, time 0.699833 min) was 0.06848 µM and 0.06274 µM and 0.0479 µM, the “SPE-MS determined concentration” value ([3]; 32 uM compound 22, time 2.098 min) was 0.1104 µM and 0.1151 µM and 0.1012 µM and the “SPE-MS determined concentration” value ([3]; 32 uM compound 22, time 2.797 min) was 0.1309 µM and 0.1405 µM and 0.1242 µM. For the same compound, the “SPE-MS determined concentration” value ([3]; 32 uM compound 22 as cosubstrate, time 3.49667 min, replicates 1-3) was 0.1431 µM and 0.1593 µM and 0.14 µM, the “SPE-MS determined concentration” value ([3]; 64 uM compound 22, time 0 min) was 0.02766 µM and 0.02 µM and 0.02798 µM and the “SPE-MS determined concentration” value ([3]; 64 uM compound 22, time 0.699833 min) was 0.06638 µM and 0.06107 µM and 0.07538 µM. For the same compound, the “SPE-MS determined concentration” value ([3]; 64 uM compound 22, time 2.098 min) was 0.1181 µM and 0.1293 µM and 0.1259 µM, the “SPE-MS determined concentration” value ([3]; 64 uM compound 22, time 2.797 min) was 0.146 µM and 0.1627 µM and 0.1536 µM and the “SPE-MS determined concentration” value ([3]; 64 uM compound 22 as cosubstrate, time 3.49667 min, replicates 1-3) was 0.169 µM and 0.1906 µM and 0.171 µM. For the same compound, the “SPE-MS determined concentration” value ([3]; 128 uM compound 22, time 0.699833 min) was 0.06651 µM and 0.09916 µM and 0.08534 µM, the “SPE-MS determined concentration” value ([3]; 128 uM compound 22, time 2.098 min) was 0.1375 µM and 0.1676 µM and 0.1537 µM and the “SPE-MS determined concentration” value ([3]; 128 uM compound 22, time 2.797 min) was 0.162 µM and 0.1955 µM and 0.1789 µM. For the same compound, the “SPE-MS determined concentration” value ([3]; 128 uM compound 22 as cosubstrate, time 3.49667 min, replicates 1-3) was 0.1878 µM and 0.2084 µM and 0.2042 µM, the “SPE-MS determined concentration” value ([3]; 256 uM compound 22, time 0 min) was 0.05949 µM and 0.04197 µM and the “SPE-MS determined concentration” value ([3]; 256 uM compound 22, time 0.699833 min) was 0.1 µM and 0.09439 µM. The “SPE-MS determined concentration” value ([3]; 256 uM compound 22, time 2.098 min) was 0.1712 µM and 0.1647 µM, the “SPE-MS determined concentration” value ([3]; 256 uM compound 22, time 2.797 min) was 0.1988 µM and 0.1857 µM and the “SPE-MS determined concentration” value ([3]; 256 uM compound 22 as cosubstrate, time 3.49667 min, replicates 2-3 (replicate 1 empty)) was 0.2377 µM and 0.2176 µM. The “slope of initial reaction rate” value ([3]; CA1-20, 16 μM 22) was 0.001019 and 0.001398 and 0.001783, the “slope of initial reaction rate” value ([3]; CA1-20, 32 μM 22) was 0.002274 and 0.002243 and 0.002771 and the “slope of initial reaction rate” value ([3]; CA1-20, 64 μM 22) was 0.003753 and 0.003305 and 0.003867. For the same compound, the “slope of initial reaction rate” value ([3]; CA1-20, 128 μM 22) was 0.0046 and 0.003872 and 0.004223, the “slope of initial reaction rate” value ([3]; CA1-20, 256 μM 22) was 0.004108 and 0.004197 and 0.004611 and the “FIH Kmapp” value ([3]; CA1–20 substrate) was 39 µM. For the same compound, the “slope of initial reaction rate” value ([3]; HIF-1a788-822, 8 μM 22) was 0.000249 and 0.000403 and 0.000322, the “slope of initial reaction rate” value ([3]; HIF-1a788-822, 16 μM 22) was 0.000332 and 0.000535 and 0.000447 and the “slope of initial reaction rate” value ([3]; HIF-1a788-822, 32 μM 22) was 0.000561 and 0.000718 and 0.000685. For the same compound, the “slope of initial reaction rate” value ([3]; HIF-1a788-822, 64 μM 22) was 0.000686 and 0.000843 and 0.000711, the “slope of initial reaction rate” value ([3]; HIF-1a788-822, 128 μM 22) was 0.000874 and 0.000824 and 0.000795 and the “slope of initial reaction rate” value ([3]; HIF-1a788-822, 256 μM 22) was 0.000833 and 0.000843. For the same compound, the “FIH Kmapp” value ([3]; HIF-1α788–822 substrate) was 15 µM.
